Our source for the TGI and GI50 values is PubChem BioAssay (NCI).

Common to all, as to assay: NCI-60 cell line screen, 48 h
In assay [1] the test system is NCI-H226 lung.
In assay [2] the test system is MALME-3M melanoma.
Assay [3] concerns CCRF-CEM leukemia.
Assay [4] has as its system SNB-19 CNS.
The test system of assay [5] is A549 NSCLC.
Assay [6] deals with IGROV1 ovarian.
For assay [7], the system named is OVCAR-4 ovarian.
Assay [8] concerns SK-OV-3 ovarian.
For assay [9], the system named is HL-60(TB) leukemia.

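Five compound concentrations were applied to cells in 96-well plates for 48 hours; endpoints were derived by simple linear interpolation of the resulting dose-response curve. GI50 marks 50% less growth. TGI marks complete inhibition of growth.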

In the case of `CCN(CC)CC(C)(C)C(=O)/C=C/c1cccc(/C=C/C(=O)C(C)(C)CN(CC)CC)c1`, the TGI was determined as 3.38 µM in [1]; 3.11 µM in assay [2]; 11.6 µM in [3]; 3.89 µM in assay [4]; 2.67 µM in assay [5]; 2.23 µM in assay [6]. The TGI in assay [7] worked out at 1.41 µM; in assay [8], 2.79 µM.
Consider `Cc1ccc(S(=O)(=O)c2ccc(NC(=O)SCCC(=O)O)cc2)cc1`, for which the TGI in assay [1], in assay [3], in assay [4], in assay [5], in assay [6] and in assay [9] was more than 100 µM in each case. The compound further returned a TGI in [7] of more than 100 µM.
Turning to `COc1cccc2ccc(C(=O)c3ccccc3)nc12`, the TGI in [1], in assay [2], in assay [3], in [5], in assay [6] and in assay [7] was more than 100 µM in each case.
Consider `CN(C)c1ccc(/C=C/C(=O)[O-])cc1.CN(C)c1ccc(/C=C/C(=O)[O-])cc1.[Cu+2]`, for which the TGI in assay [1], in assay [2], in assay [3], in [4], in assay [5] and in assay [6] was more than 100 µM in each case. Besides, the TGI in assay [9] was more than 100 µM; in [7] it was more than 100 µM; in [8], more than 95 µM. The GI50 in [7] was 14.9 µM.
Turning to `COc1ccccc1NC(=O)C1=C(C)NC(C)=C(C(=O)Nc2ccccc2OC)C1C1=CC=COC1`, the TGI was more than 100 µM in assay [1]; more than 100 µM in assay [2]; 48.4 µM in assay [3]; 84.2 µM in [4]; more than 100 µM in assay [5]; more than 100 µM in [6]. For the same compound, the results for the TGI in [9], in assay [7] and in assay [8] were 10.7 µM, more than 100 µM and 71.2 µM, respectively.
On to `COc1ccc(C(=O)Nc2ncc(Cc3cccc(Cl)c3)s2)cc1OC`, for which the GI50 in assay [1] was 1.48 µM; in [2] it was 0.748 µM; in [3] it was 0.626 µM; in assay [4], 0.689 µM; in [5], 0.631 µM; in [6], 0.525 µM. Also, the GI50 in [9] is 0.325 µM; in [7], 3.68 µM; in [8], 3.59 µM. Also, the TGI in [1], in assay [2], in [3], in [4], in [5] and in [6] was more than 100 µM throughout. The figures for the TGI in assay [9], in [7] and in assay [8] were more than 71 µM, more than 100 µM and more than 100 µM, respectively.
As for `O=C1CC(c2c(-c3ccccc3)[nH]c3ccccc23)C(=O)N1` (stereo not drawn), the TGI in assay [1], in assay [2], in assay [3], in [5], in assay [6] and in assay [9] was more than 100 µM each time. Further, the TGI in [7] and in assay [8] was more than 100 µM throughout.
For the compound `C=CC(=O)NCCSCCCOC1(C(=O)O)CC(O)C(NC(C)=O)C(C(O)C(O)CO)O1` (stereo not drawn), the TGI in [1], in [2], in [4], in assay [5], in assay [6] and in assay [9] was more than 100 µM each time. For the same compound, the TGI in [7] and in assay [8] was more than 100 µM throughout.
Turning to `COC1OC(CO)C(O)C(OC(C)=O)C1NC(=O)N(CCCl)N=O` (stereo not drawn), the TGI in [1], in assay [2], in assay [3], in [4], in assay [5] and in [6] was more than 100 µM throughout. In addition, the TGI in [9], in assay [7] and in assay [8] was more than 100 µM in each case.
In the case of `CC1=Nc2ccccc2NC(c2ccoc2)C1` (stereo not drawn), the TGI in [1], in assay [2], in assay [3], in [4], in [5] and in assay [6] was more than 100 µM each time. Moreover, the TGI in assay [9], in assay [7] and in [8] was more than 100 µM throughout.
Regarding `COC(=O)C(=O)C(C(=O)C(=O)Nc1cccc(C(C)=O)c1)c1nc2ccc([N+](=O)[O-])cc2[nH]c1=O` (stereo not drawn), the TGI in [1], in assay [2], in assay [3], in [4], in [5] and in [6] was more than 100 µM throughout. The TGI in [9], in assay [7] and in [8] was more than 100 µM each time.
Turning to `O=[N+]([O-])c1ccc(C2CC(c3ccccc3Cl)=Nc3ccccc3S2)cc1` (stereo not drawn), the TGI in [1] turned out to be 27.9 µM; in assay [2] it was 24.9 µM; in assay [3], 6.77 µM; in assay [5] it was 33.4 µM; in assay [6], 29.6 µM; in [9], 6.36 µM. Moreover, the values for the TGI in [7] and in [8] were 24.5 µM and more than 85.3 µM, respectively.
For `O=S(=O)([O-])c1ccc(N=Cc2ccccc2[O-])cc1.O=S(=O)([O-])c1ccc(N=Cc2ccccc2[O-])cc1.[O]=[U+2]=[O]`, the GI50 in [1] is more than 100 µM; in [2], more than 100 µM; in [3], more than 100 µM; in assay [4], 66.4 µM; in assay [5] it was more than 100 µM; in [6], 83.8 µM. The GI50 in assay [7] and in assay [8] was more than 100 µM in each case. The TGI in [1], in assay [2], in [3], in assay [4], in assay [5] and in assay [6] was more than 100 µM each time. Also, the TGI in [7] and in [8] was more than 100 µM in each case.
`CN1C(=O)CCC2[C@@H]3CC=C4C[C@@H](O)CC[C@]4(C)C3CC[C@@]21C` (stereo partly drawn): the TGI in assay [1] is more than 100 µM; in assay [2], more than 100 µM; in assay [3], more than 100 µM; in [5], more than 100 µM; in assay [6], more than 100 µM; in assay [9], 56 µM. Besides, the TGI in [7] and in assay [8] was more than 100 µM in each case.
